Target: T1, human LPA1 (Homo sapiens, UniProt Q92633)
T1 construct: expressed in transfected cells; host or cells: CHO-K1
Assay: In vitro LPA1 calcium flux antagonist assay, Bioduro protocol
Type: cell-based
Details: CHO-K1 cells overexpressing human LPA1 and G15a; LPA challenge at EC80; calcium mobilization on FLIPR Tetra; read-out: IC50 (nM) in Assay B2
Experimental: In Vitro LPA1 Calcium Flux Antagonist Assay Bioduro Protocol
CHO-K1 cells overexpressing human LPA1 and G15a were seeded at a total volume of 20 uL (15000 cells/well) into Matrigel pre-coated 384-well plates (coming -3764) and incubated at 37° C. After overnight incubation, the cells were serum starved for 4 h. Assays were performed in dye loading buffer containing 1× Fluo-8 AM (AAT Bioquest, 21080) and 2.5 mM probenecid (Thermo Fisher, 36400) in HBSS/20 mM Hepes. After cell starvation, the medium was replaced with 20 uL of dye loading buffer and incubated at 37° C. for 30 min. Then 5 uL of 5× compound titrated in dye loading buffer was added to the cells and incubated for 30 min followed by LPA challenge at EC80. Calcium mobilization was measured on a FLIPR Tetra (MDS). For LPA EC80 determination, starved cells were incubated with 20 uL of dye loading buffer for 1 h, then 5 uL of 5×LPA titrated in dye loading buffer was added to the cells. Calcium signals induced by LPA was monitors on a FLIPR.
Percentage inhibition is calculated using the following formula:
% Inhibition=100%×(1−(mean RFU of test sample−mean RFU of DMSO)/(mean RFU of LPA control−mean RFU of DMSO)).

T1 sequence (Q92633 whole entry): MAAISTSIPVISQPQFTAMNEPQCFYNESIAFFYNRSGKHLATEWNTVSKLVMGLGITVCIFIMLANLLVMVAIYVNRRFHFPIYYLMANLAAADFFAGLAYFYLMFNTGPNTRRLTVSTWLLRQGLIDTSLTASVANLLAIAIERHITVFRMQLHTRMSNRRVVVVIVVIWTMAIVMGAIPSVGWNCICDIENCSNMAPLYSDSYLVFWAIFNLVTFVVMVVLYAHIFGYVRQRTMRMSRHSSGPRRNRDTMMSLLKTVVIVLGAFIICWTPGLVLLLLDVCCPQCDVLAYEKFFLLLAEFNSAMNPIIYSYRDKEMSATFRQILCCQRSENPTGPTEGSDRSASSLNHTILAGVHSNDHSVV

IC50 [nM]	SMILES
1130	COc1c(C)ccc([C@@H](O)[C@H](Cn2cc3nccc(C(=O)O)c3n2)OC2CCCC2)c1Cl [Compound 200]
723	COc1cc([C@@H](O)C(Cc2nc(C3(C(=O)O)CC3)c(C)s2)OC2CCCC2)cc(OC)c1C (some centres unmarked) [Compound 207]
5.42	COc1cc([C@@H](O)[C@H](Cn2cc3c(F)ccc(C(=O)O)c3n2)OC2CCCC2)cc(OC)c1C [Compound 153]
1530	COc1cc([C@@H](O)[C@H](Cn2cc3nccc(C(=O)O)c3n2)OC2CCCC2)c(F)cc1C [Compound 190]
6.87	COc1cc([C@@H](O)[C@H](Cn2cc3nc(Cl)cc(C(=O)O)c3n2)OC2CCCC2)cc(OC)c1C [Compound 198]
≥ 10000	COc1cc([C@@H](O)[C@H](Cn2cc3cccc(C(=O)NS(C)(=O)=O)c3n2)OC2CCCC2)cc(OC)c1C [Compound 171]
62.2	Cc1ccc([C@@H](O)[C@H](Cn2cc3cc(C#N)cc(C(=O)O)c3n2)OC2CCCC2)cc1OC(F)(F)F [Compound 228]
5.79	COc1cc([C@@H](O)[C@H](Cc2nc3c(C(=O)O)cc(C(F)(F)F)cc3s2)OCC(C)C)cc(OC)c1C [Compound 253]
667	COc1cc([C@@H](O)[C@H](Cn2cc3nccc(C(=O)O)c3n2)OC2CCCC2)c(C)c(OC)c1C [Compound 199]
1300	COc1cc([C@@H](O)[C@H](Cc2cn3cc(C)cc(C(=O)O)c3n2)OC2CCCC2)cc(OC)c1C [Compound 217]
13	COc1cc([C@@H](O)[C@H](Cc2cc3cc(C)cc(C(=O)O)n3n2)OC2CCCC2)cc(OC)c1C [Compound 218]
122	CCOc1cc([C@@H](O)[C@H](Cn2cc3nccc(C(=O)O)c3n2)OC2CCCC2)cc(OCC)c1C(C)=O [Compound 204]
149	COc1cc([C@@H](O)[C@H](Cn2cc3cc(C#N)cc(C(=O)O)c3n2)OC2CCCC2)ccc1C1CC1 [Compound 227]
717	COc1cc([C@H](O)[C@H](Cc2nc3c(C(=O)O)cccc3s2)OC2CCCC2)cc(OC)c1C [Compound 281]
8.64	COc1cc([C@@H](O)[C@H](Cn2cc3cc(F)cc(C(=O)O)c3n2)OC2CCCC2)cc(OC)c1C [Compound 154]
132	COc1cc([C@@H](O)[C@H](Cn2cc3nccc(C(=O)O)c3n2)OCCc2ccc(F)cc2)cc(OC)c1C [Compound 187]
40.8	COc1cc(C(=O)O)n2nc(C[C@H](OC3CCCC3)[C@H](O)c3cc(OC)c(C)c(OC)c3)cc2c1 [Compound 235]
7.26	COc1cc([C@@H](O)[C@H](Cc2cc3cc(C4CC4)cc(C(=O)O)n3n2)OC2CCCC2)cc(OC)c1C [Compound 229]
1760	COc1cc(C(=O)O)c2nc(C[C@@H](OC3CCCC3)[C@H](O)c3cc(OC)c(C)c(OC)c3)sc2c1 [Compound 283]
9.18	COc1cc(C(=O)O)c2nc(C[C@H](OCC(C)C)[C@H](O)c3cc(OC)c(C)c(OC)c3)sc2c1 [Compound 236]
366	CCCc1sc(C[C@H](OC2CCCC2)[C@H](O)c2cc(OC)c(C)c(OC)c2)nc1[C@@H](C)C(=O)O [Compound 261]

IC50 [nM]	SMILES
28	CCCc1sc(C[C@H](OC2CCCC2)[C@H](O)c2cc(OC)c(C)c(OC)c2)nc1[C@H](C)C(=O)O [Compound 260]
> 10000	COc1cc([C@@H](O)[C@H](Cc2nc3cccc(C(=O)O)n3n2)OC2CCCC2)cc(OC)c1C [Compound 167]
> 10000	COc1cc([C@@H](O)[C@H](Cc2nc3c(C(=O)O)cccn3n2)OC2CCCC2)cc(OC)c1C [Compound 168]
11.1	COc1cc([C@@H](O)[C@H](Cn2cc3cc(C4CC4)nc(C(=O)O)c3n2)OC2CCCC2)cc(OC)c1C [Compound 231]
27.2	COc1cc([C@@H](O)[C@H](Cn2cc3cc(C#N)cc(C(=O)O)c3n2)OCC(C)C)cc(OC)c1C [Compound 232]
60.2	COCc1sc(C[C@H](OC2CCCC2)[C@H](O)c2cc(OC)c(C)c(OC)c2)nc1CC(=O)O [Compound 249]
6.09	COc1cc([C@@H](O)[C@H](Cn2cc3cc(Cl)cc(C(=O)O)c3n2)OC2CCCC2)ccc1C(F)F [Compound 173]
28.9	CCOc1cc([C@@H](O)[C@H](Cn2cc3cc(C#N)cc(C(=O)O)c3n2)OC2CCCC2)cc(OCC)c1C [Compound 226]
7810	COC(=O)Cc1nc(CC(OC2CCCC2)[C@H](O)c2cc(OC)c(C)c(OC)c2)sc1C(=O)O (some centres unmarked) [Compound 210]
1120	COc1c(C)ccc([C@@H](O)[C@H](Cn2cc3nccc(C(=O)O)c3n2)OC2CCCC2)c1C [Compound 192]
5.33	COc1cc([C@@H](O)[C@H](Cc2cc3cccc(C(=O)O)n3n2)OC2Cc3ccccc3C2)cc(OC)c1C [Compound 264]
≥ 10000	Cc1ccc([C@@H](O)[C@H](Cn2cc3cccc(C(=O)O)c3n2)OC2CCCC2)cc1O [Compound 151]
10.1	COc1cc([C@@H](O)[C@H](Cc2nc3c(C(=O)O)cc(F)cc3s2)OCC2CCCC2)cc(OC)c1C [Compound 263]
449	CCOc1cc([C@@H](O)[C@H](Cc2nc3c(C(=O)O)cccc3s2)OCC(C)C)ccc1C(C)=O [Compound 258]
91.8	COc1cc([C@@H](O)[C@H](Cn2cc3cc(C(N)=O)cc(C(=O)O)c3n2)OC2CCCC2)cc(OC)c1C [Compound 221]
1.65	CCOc1cc(C(=O)O)c2nc(C[C@H](OC3CCCC3)[C@H](O)c3cc(OC)c(C)c(OC)c3)sc2c1 [Compound 275]
32.3	COc1cc([C@@H](O)[C@H](Cn2cc3cc(C)nc(C(=O)O)c3n2)OC2CCCC2)cc(OC)c1C [Compound 195]
52	COc1cc([C@@H](O)[C@H](Cc2nc(C(C)C(=O)O)c(C3CC3)s2)OC2CCCC2)cc(OC)c1C (some centres unmarked) [Compound 268]
> 10000	COc1cc(C(=O)O)c2nc(C[C@@H](OC3CCCC3)[C@@H](O)c3cc(OC)c(C)c(OC)c3)sc2c1 [Compound 284]
26.9	COc1cc([C@@H](O)[C@H](Cn2cc3nc(C)cc(C(=O)O)c3n2)OC2CCCC2)cc(OC)c1C [Compound 194]
301	COc1cc([C@@H](O)[C@H](Cc2cn3nccc(C(=O)O)c3n2)OC2CCCC2)cc(OC)c1C [Compound 156]

IC50 [nM]	SMILES
> 10000	COc1cc([C@@H](O)[C@H](Cn2cc3nccc(C(=O)O)c3n2)OCCCc2ccccc2)cc(OC)c1C [Compound 214]
3.93	COc1cc([C@@H](O)[C@H](Cn2cc3cc(C(F)F)cc(C(=O)O)c3n2)OC2CCCC2)cc(OC)c1C [Compound 162]
> 10000	COc1cc([C@@H](O)[C@H](Cn2nc3cccc(C(=O)O)c3n2)OC2CCCC2)cc(OC)c1C [Compound 170]
43.4	COc1cc([C@@H](O)[C@H](Cn2cc3nc(C(N)=O)cc(C(=O)O)c3n2)OC2CCCC2)cc(OC)c1C [Compound 222]
> 10000	COc1cc([C@@H](O)[C@H](Cc2nc3c(C(=O)O)cccc3n2C)OC2CCCC2)cc(OC)c1C [Compound 175]
6.28	COc1cc([C@@H](O)[C@H](Cn2cc3cc(C)cc(C(=O)O)c3n2)OC2CCCC2)cc(OC)c1C [Compound 161]
3.34	COc1cc([C@@H](O)[C@H](Cc2nc3c(C(=O)O)cc(C(F)(F)F)cc3s2)OC2CCCC2)cc(OC)c1C [Compound 244]
55.8	COc1cc([C@@H](O)[C@H](Cn2cc3ccnc(C(=O)O)c3n2)OC2CCCC2)cc(OC)c1C [Compound 158]
31.9	CCCCc1sc(C[C@H](OC2CCCC2)[C@H](O)c2cc(OC)c(C)c(OC)c2)nc1CC(=O)O [Compound 259]
9.95	COc1cc([C@@H](O)[C@H](Cc2nc3c(C(=O)O)cncc3s2)OC2CCCC2)cc(OC)c1C [Compound 176]
73.8	CCc1sc(C[C@H](OC2CCCC2)[C@H](O)c2cc(OC)c(C)c(OC)c2)nc1CC(=O)O [Compound 178]
24	COc1cc([C@@H](O)[C@H](Cn2cc3nccc(C(=O)O)c3n2)OCCc2ccccc2)cc(OC)c1C [Compound 184]
507	COc1cc([C@@H](O)[C@H](Cn2cc3nccc(C(=O)O)c3n2)OC2CCCC2)cc(OC)c1C1CC1 [Compound 205]
327	COc1cc([C@@H](O)[C@H](Cn2cc3nccc(C(=O)O)c3n2)OC2CCCC2)cc(OC)c1Br [Compound 224]
17.4	COc1cc([C@@H](O)[C@H](Cc2cc3cc(C(F)(F)F)cc(C(=O)O)n3n2)OC2CCCC2)cc(OC)c1C [Compound 250]
103	CCCc1sc(C[C@H](OCC(C)C)[C@H](O)c2cc(OC)c(C)c(OC)c2)nc1C(C)C(=O)O (some centres unmarked) [Compound 267]
11.9	COc1cc(C(=O)O)c2nn(C[C@H](OC3CCCC3)[C@H](O)c3cc(OC)c(C)c(OC)c3)cc2c1 [Compound 164]
≥ 10000	CCOc1cc([C@@H](O)[C@H](Cn2cc3cncc(C(=O)O)c3n2)OC2CCCC2)cc(OCC)n1 [Compound 208]
662	COc1cc([C@@H](O)[C@H](Cn2cc3nccc(C(=O)O)c3n2)OC2CCCC2)ccc1C [Compound 191]
47.2	CCOc1cc([C@@H](O)[C@H](Cc2nc3c(C(=O)O)cccc3s2)OC2CCCC2)cc(OCC)c1C#N [Compound 257, 2-((2S,3R)-3-(4-cyano-3,5-diethoxyphenyl)-2-(cyclopentyloxy)-3-hydroxypropyl) benzo [d]thiazole-4-carboxylic acid]
